Assays:
[1] = tested on: Alternaria solani; assay: Alternaria solani / tomato / leaf disc (early blight); format: in vivo; conditions: foliar, tomato leaf disks cv. Baby, inoculated 2 days after application, assessed 5-7 days after application, read-out: control of Alternaria solani (percent disease control compared to untreated)
Method: Example B1: Alternaria solani/Tomato/Leaf Disc (Early Blight) Tomato leaf disks cv. Baby are placed on agar in multiwell plates (24-well format) and sprayed with the formulated test compound diluted in water. The leaf disks are inoculated with a spore suspension of the fungus 2 days after application. The inoculated leaf disks are incubated at 23° C./21° C. […] […]-185.

[2] = tested on: Glomerella lagenarium (Colletotrichum lagenarium); assay: Glomerella lagenarium (Colletotrichum lagenarium) / liquid culture (anthracnose); format: cell-based; conditions: Colletotrichum orbiculare, PDB potato dextrose broth, 24° C., 3-4 days after application, read-out: control of Glomerella lagenarium (inhibition of growth, photometric)
In short: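 Conidia from cryogenic storage suspended in potato dextrose broth and added to DMSO compound solution in plates. Incubated at 24° C; growth inhibition read photometrically 3-4 days after application.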

[3] = tested on: Blumeria graminis f. sp. tritici (Erysiphe graminis f. sp. tritici); assay: Blumeria graminis f. sp. tritici / wheat / leaf disc preventative (powdery mildew on wheat); format: in vivo; conditions: foliar, wheat leaf segments cv. Kanzler, inoculated 1 day after application, assessed 6-8 days after application, read-out: control of Blumeria graminis f. sp. tritici (percent disease control compared to untreated)
Excerpt: Example B4: Blumeria graminis f. sp. tritici (Erysiphe graminis f. sp. tritici)/Wheat/Leaf Disc Preventative (Powdery Mildew on Wheat) Wheat leaf segments cv. Kanzler are placed on agar in a multiwell plate (24-well format) and sprayed with the formulated test compound diluted in water. The leaf disks are inoculated by shaking powdery mildew infected plants above the test plates 1 day after application. […] […]-192.

[4] = tested on: Monographella nivalis (Microdochium nivale); assay: Monographella nivalis (Microdochium nivale) / liquid culture (foot rot cereals); format: cell-based; conditions: PDB potato dextrose broth, 24° C., 4-5 days after application, read-out: control of Monographella nivalis (inhibition of growth, photometric)
In short: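 Cryostored M. nivalis conidia mixed into potato dextrose broth and added to 96-well plates holding test compound in DMSO. Incubated at 24° C; growth inhibition read photometrically 4-5 days after application.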

[5] = tested on: Mycosphaerella graminicola (Septoria tritici); assay: Mycosphaerella graminicola (Septoria tritici) / liquid culture (Septoria blotch); format: cell-based; conditions: Zymoseptoria tritici, PDB potato dextrose broth, 24° C., 4-5 days after application, read-out: control of Mycosphaerella graminicola (inhibition of growth, photometric)
In short: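 Conidia from cryogenic storage were mixed into potato dextrose broth and added to test compound in DMSO. Plates were incubated at 24° C, and growth inhibition was read photometrically 4-5 days after application.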

[6] = tested on: Puccinia recondita f. sp. tritici; assay: Puccinia recondita f. sp. tritici / wheat / leaf disc preventative (brown rust); format: in vivo; conditions: foliar, wheat leaf segments cv. Kanzler, inoculated 1 day after application, assessed 7-9 days after application, read-out: control of Puccinia recondita f. sp. tritici, preventative (percent disease control compared to untreated)
Method: Example B11: Puccinia recondita f. sp. tritici/Wheat/Leaf Disc Preventative (Brown Rust) Wheat leaf segments cv. Kanzler are placed on agar in multiwell plates (24-well format) and sprayed with the formulated test compound diluted in water. The leaf disks are inoculated with a spore suspension of the fungus 1 day after application. The inoculated leaf segments are incubated at 19° C. and 75% rh under a light regime of 12 h light/12 h darkness in a climate cabinet and the activity of a compound is assessed as percent disease control compared to untreated when an appropriate level of disease damage appears in untreated check leaf segments (7-9 days after application). […] […]-190.

[7] = tested on: Magnaporthe grisea (Pyricularia oryzae); assay: whole plant or invertebrate; format: in vivo; conditions: foliar, read-out: control of Magnaporthe grisea (percent disease control compared to untreated)
[8] = tested on: Pyrenophora teres; assay: Pyrenophora teres / barley / leaf disc preventative (net blotch); format: in vivo; conditions: foliar, barley leaf segments cv. Hasso, inoculated 2 days after application, assessed 5-7 days after application, read-out: control of Pyrenophora teres (disease control compared to untreated)
Method: Example B13: Pyrenophora teres/Barley/Leaf Disc Preventative (Net Blotch) Barley leaf segments cv. Hasso are placed on agar in a multiwell plate (24-well format) and sprayed with the formulated test compound diluted in water. The leaf segments are inoculated with a spore suspension of the fungus 2 days after application. The inoculated leaf segments are incubated at 20° C. and 65% rh under a light regime of 12 h light/12 h darkness in a climate cabinet and the activity of a compound is assessed as disease control compared to untreated when an appropriate level of disease damage appears in untreated check leaf segments (5-7 days after application). […] […]-185.

[9] = tested on: Mycosphaerella arachidis (Cercospora arachidicola); assay: Mycosphaerella arachidis (Cercospora arachidicola) / liquid culture (early leaf spot); format: cell-based; conditions: PDB potato dextrose broth, 24° C., 4-5 days after application, read-out: control of Mycosphaerella arachidis (inhibition of growth, photometric)
Method: Example B8: Mycosphaerella arachidis (Cercospora arachidicola)/Liquid Culture (Early Leaf Spot) Conidia of the fungus from cryogenic storage are directly mixed into nutrient broth (PDB potato dextrose broth). After placing a (DMSO) solution of test compound into a microtiter plate (96-well format), the nutrient broth containing the fungal spores is added. The test plates are incubated at 24° C. and the inhibition of growth is determined photometrically 4-5 days after application. […] […]-180.

COc1ccc(Nc2cnsc2)nc1C(=O)NCC1(C(F)(F)F)CC1 [Compound P-83, 6-(isothiazol-4-ylamino)-3-methoxy-N-[[1-(trifluoromethyl)cyclopropyl]methyl]pyridine-2-carboxamide]
≥ 80%: pest or weed control at 200 ppm [1] | inhibition at 20 ppm [2] | pest or weed control at 200 ppm [3] | inhibition at 20 ppm [4] | inhibition at 20 ppm [5]

COc1ccc(Nc2cc(F)nc(F)c2)nc1C(=O)NC1(C#N)CCCC1 [Compound P-125, N-(1-cyanocyclopentyl)-6-[(2,6-difluoro-4-pyridyl)amino]-3-methoxy-pyridine-2-carboxamide]
≥ 80%: pest or weed control at 200 ppm [1] | pest or weed control at 200 ppm [3] | pest or weed control at 200 ppm [6] | pest or weed control at 200 ppm [7]

COc1ccc(Nc2cc(F)cc(F)c2)nc1C(=O)NC1CCS(=O)(=O)CC1 [Compound P-78, 6-(3,5-difluoroanilino)-N-(1,1-dioxothian-4-yl)-3-methoxy-pyridine-2-carboxamide]
≥ 80%: pest or weed control at 200 ppm [1]

COc1ccc(Nc2cc(Cl)cc(Cl)c2)nc1C(=O)NC(C)(C)C [Compound P-148, N-tert-butyl-6-(3,5-dichloroanilino)-3-methoxy-pyridine-2-carboxamide]
≥ 80%: pest or weed control at 200 ppm [1] | inhibition at 20 ppm [2] | inhibition at 20 ppm [4] | pest or weed control at 200 ppm [6] | pest or weed control at 200 ppm [7] | inhibition at 20 ppm [5]

COc1ccc(Nc2cc(F)cc(F)c2)nc1C(=O)NC1COC2(CC2)C1 (centres unmarked) [Compound P-70, 6-(3,5-difluoroanilino)-3-methoxy-N-(4-oxaspiro[2.4]heptan-6-yl)pyridine-2-carboxamide]
≥ 80%: pest or weed control at 200 ppm [1] | inhibition at 20 ppm [2] | pest or weed control at 200 ppm [3] | inhibition at 20 ppm [4] | pest or weed control at 200 ppm [6] | pest or weed control at 200 ppm [7] | inhibition at 20 ppm [5]

CC(C)Oc1ccc(Nc2cc(F)cc(F)c2)nc1C(=O)NC1CCC1(C)C (centres unmarked) [Compound P-87, 6-(3,5-difluoroanilino)-N-(2,2-dimethylcyclobutyl)-3-isopropoxy-pyridine-2-carboxamide]
≥ 80%: pest or weed control at 200 ppm [1] | inhibition at 20 ppm [2] | inhibition at 20 ppm [4] | pest or weed control at 200 ppm [7]

COc1ccc(Nc2cc(F)cc(F)c2)nc1C(=O)NCC1(C)CCOC1 (centres unmarked) [Compound P-68, 6-(3,5-difluoroanilino)-3-methoxy-N-[(3-methyltetrahydrofuran-3-yl)methyl]pyridine-2-carboxamide]
≥ 80%: pest or weed control at 200 ppm [1] | inhibition at 20 ppm [2] | pest or weed control at 200 ppm [3] | inhibition at 20 ppm [4] | pest or weed control at 200 ppm [7] | inhibition at 20 ppm [5]

COc1ccc(Nc2cc(F)cc(F)c2)nc1C(=O)NC1C2CCOC2C1(C)C (centres unmarked) [Compound P-76, 6-(3,5-difluoroanilino)-N-(7,7-dimethyl-2-oxabicyclo[3.2.0]heptan-6-yl)-3-methoxy-pyridine-2-carboxamide]
≥ 80%: pest or weed control at 200 ppm [1] | inhibition at 20 ppm [2] | pest or weed control at 200 ppm [3] | inhibition at 20 ppm [4] | pest or weed control at 200 ppm [6] | pest or weed control at 200 ppm [7] | pest or weed control at 200 ppm [8] | inhibition at 20 ppm [5]

COc1ccc(Nc2cc(F)nc(F)c2)nc1C(=O)NC1(C)CCCCC1 [Compound P-110, 6-[(2,6-difluoro-4-pyridyl)amino]-3-methoxy-N-(1-methylcyclohexyl)pyridine-2-carboxamide]
≥ 80%: pest or weed control at 200 ppm [1] | inhibition at 20 ppm [2] | pest or weed control at 200 ppm [3] | inhibition at 20 ppm [4] | pest or weed control at 200 ppm [6] | pest or weed control at 200 ppm [7] | inhibition at 20 ppm [5]

COc1ccc(Nc2cc(F)nc(F)c2)nc1C(=O)NC1CCC12CCCC2 (centres unmarked) [Compound P-6, 6-[(2,6-difluoro-4-pyridyl)amino]-3-methoxy-N-spiro[3.4]octan-3-yl-pyridine-2-carboxamide]
≥ 80%: pest or weed control at 200 ppm [1] | inhibition at 20 ppm [2] | pest or weed control at 200 ppm [3] | inhibition at 20 ppm [4] | pest or weed control at 200 ppm [6] | pest or weed control at 200 ppm [7] | pest or weed control at 200 ppm [8] | inhibition at 20 ppm [5]

COc1ccc(Nc2cc(F)cc(F)c2)nc1C(=O)NCc1c(Cl)cncc1Cl [Compound P-66, N-[(3,5-dichloro-4-pyridyl)methyl]-6-(3,5-difluoroanilino)-3-methoxy-pyridine-2-carboxamide]
≥ 80%: pest or weed control at 200 ppm [1] | inhibition at 20 ppm [2] | inhibition at 20 ppm [4] | pest or weed control at 200 ppm [7] | inhibition at 20 ppm [5]

COc1ccc(Nc2cc(F)cc(F)c2)nc1C(=O)NCC1COc2ccccc21 (centres unmarked) [Compound P-60, 6-(3,5-difluoroanilino)-N-(2,3-dihydrobenzofuran-3-ylmethyl)-3-methoxy-pyridine-2-carboxamide]
≥ 80%: pest or weed control at 200 ppm [1] | inhibition at 20 ppm [2] | inhibition at 20 ppm [4] | pest or weed control at 200 ppm [7] | inhibition at 20 ppm [5]

C#CCOc1ccc(Nc2cc(F)cc(F)c2)nc1C(=O)NC1CCC1(C)C (centres unmarked) [Compound P-86, 6-(3,5-difluoroanilino)-N-(2,2-dimethylcyclobutyl)-3-prop-2-ynoxy-pyridine-2-carboxamide]
≥ 80%: pest or weed control at 200 ppm [1] | inhibition at 20 ppm [2] | inhibition at 20 ppm [4]

COc1ccc(Nc2cc(F)cc(F)c2)nc1C(=O)NC1COC(C2CC2)C1 (centres unmarked) [Compound P-65, N-(5-cyclopropyltetrahydrofuran-3-yl)-6-(3,5-difluoroanilino)-3-methoxy-pyridine-2-carboxamide]
≥ 80%: pest or weed control at 200 ppm [1] | inhibition at 20 ppm [2] | pest or weed control at 200 ppm [3] | inhibition at 20 ppm [4] | pest or weed control at 200 ppm [7] | inhibition at 20 ppm [5]

COc1ccc(Nc2cnsc2)nc1C(=O)NC(C)CCCC(C)C (centres unmarked) [Compound P-36, N-(1,5-dimethylhexyl)-6-(isothiazol-4-ylamino)-3-methoxy-pyridine-2-carboxamide]
≥ 80%: inhibition at 20 ppm [2] | inhibition at 20 ppm [4] | inhibition at 20 ppm [9] | inhibition at 20 ppm [5]

COc1ccc(Nc2cc(F)nc(F)c2)nc1C(=O)NCCC(C)C [Compound P-29, 6-[(2,6-difluoro-4-pyridyl)amino]-N-isopentyl-3-methoxy-pyridine-2-carboxamide]
≥ 80%: inhibition at 20 ppm [2] | pest or weed control at 200 ppm [3] | inhibition at 20 ppm [4] | pest or weed control at 200 ppm [6] | pest or weed control at 200 ppm [7] | pest or weed control at 200 ppm [8] | inhibition at 20 ppm [5]
